The subject of data set [1] is liquid-like non-membrane bound compartments. Particulars: cited from earlier work.
The test system of data set [2] is HeLa cells expressing FUS GFP. Briefly: HeLa cell compound dose responses (FUS GFP, arsenate stress). The class given is cell-based. To be noted: 1 h 1 mM arsenate stress. The protocol: Small dilution steps rather than concentration replicates were selected as it provides greater statistical power from a set number of samples. Final DMSO concentration was 0.08% in all samples, and each plate included at least 12 control wells with 0.08% DMSO. Cytoplasmic FUS droplet number and nuclear/cytoplasm partition of FUS were analysed using custom macros in ImageJ. Nuclei were identified by intensity thresholding of the blue fluorescence image following a 5 px Gaussian blur. Cytoplasmic FUS droplets by intensity thresholding of the green image following a 10 px weight 0.9 unsharp filter masked by the thresholded nuclei, and nuclear FUS droplets by intensity thresholding of the green image following a 5 px weight 0.9 unsharp filter and 10 px rolling ball background subtraction masked to only include thresholded nuclei. The ratio of cytoplasmic FUS drops to nuclei was taken as cytoplasmic FUS droplets per cell per field of view, and p, the ratio of partition of FUS to the nucleus and the cytoplasm, was derived from a=Vn/vt, the ratio of nuclear to total green signal per field of view, where p=a/(1−a). […] Six fields of view were captured and analysed per condition.

For data set [3], the system named is HeLa cells expressing FUS GFP. Briefly: Stress granule formation in HeLa FUS GFP cells under different stresses. Particulars: 10 μM; mitochondrial (rotenone), hyperosmotic (sorbitol) or arsenate stress. The class given is cell-based. The protocol:
The stressor, arsenate, will react with the thiol groups of lipoamide. Therefore, to exclude the possibility that lipoamide is acting only by removing the stressor, so it was further tested whether lipoic acid can prevent stress granule formation triggered by other stresses than arsenate (an oxidative) stress: Mitochondrial electron transport chain inhibition (rotenone), heat stress (42° C.), hyperosmotic stress (sorbitol, a non-metabolisable sugar), glycolysis inhibition ([…] in the absence of glucose) or serum starvation.
Various cellular stresses were achieved by replacing 1 h 1 mM potassium arsenate treatment with other conditions: 100 μM rotenone (R8875, Sigma Aldrich) from a 1 M stock in DMSO for 2 h (mitochondrial stress). […] Sorbitol (S1876, Sigma Aldrich) from a 4 M stock in H2O for 1 h (osmotic stress). 42° C. in normal growth medium for 30 m (heat stress). […] Appropriate solvent controls were used.

Data set [4] deals with EWSR1, TIAL1, PABPC1, G3BP1. Description: Panel of HeLa lines expressing GFP-labelled stress granule proteins, arsenate stress. The class given is cell-based. Particulars: 1 mM arsenate, 10 μM compound. The protocol:
It was anticipated that a useful therapeutic would prevent all PLD-containing stress granule proteins from localising to stress granules. The inventors used 1 mM arsenate to stress a panel of HeLa cell lines expressing GFP fusions of stress granule proteins (EWSR1, TIAL1, PABPC1, G3BP1) with either no treatment or 10 μM lipoic acid or lipoamide.
Compound effects were assessed under a variety of conditions in HeLa or iPS cells expressing wild-type or P525L FUS GFP by live cell imaging. Different combinations of 1 h pre-treatment compound or pre-stress with arsenate followed by 1 h treatment with compound and/or stress with arsenate. Unless otherwise indicated, cells were pre-treated for 1 h using 10 μM compound from 10 mM stock in DMSO (or an equal volume of DMSO control) then stressed for 1 h with 1 mM potassium arsenate still in the presence of compound. GFP fluorescence was imaged by widefield epifluorescence using an inverted Olympus IX71 microscope with an Olympus 100× NA 1.4 Plan Apo oil immersion objective and a CoolSNAP HQ CCD camera (Photometrics), using a DeltaVision climate control unit (37° C., 5% CO2) (Applied Precision). The kinetics of pre-stress followed by treatment was analysed from images captured at 2 min intervals for 100 min, for single time points images were captured after 1 h unless otherwise indicated.

In another data set the test system is PAB-1. Description: Protein aggregation in C. elegans: PAB-1. The class given is in vivo, Caenorhabditis elegans. Particulars: liquid culture from L4, scored day 2 of adulthood. The protocol: The effect of lipoic acid on stress granule protein aggregation in vivo was analysed using a C. elegans model for stress granule formation and aggregation. As previously described, fluorescent-tagged PAB-1 forms abundant stress granules and large solid aggregates during aging or upon chronic stress. RHO-1 and KIN-19 also aggregate during aging, but are not RNA binding or stress granule proteins. Three lines were used: Fluorescently tagged PAB-1 (DCD214: N2; uqIs24[pmyo-2::tagrfp::pab 1gene]), KIN-19 (CF3649: N2; muIs 209[pmyo-3::kin-19::tagrfp+ptph-1::GFP] and RHO-1 (DCD13: N2; uqIs9 [pmyo-2::rho-1::tagr fp+ptph-1::gfp]). Each were analysed as below, except DCD13 were maintained at 20° C.
The animals were exposed to lipoic acid in liquid culture in a 96 well plate starting from larval stage L4 in a total volume of 50 μl S-Complete per well (100 mM NaCl, 50 mM Potassium phosphate pH 6, 10 mM potassium citrate, 3 mM MgSO4, 3 mM CaCl2), 5 μg/mL cholesterol, 50 μM ethylenediaminetetraacetic acid (EDTA), 25 μM FeSO4, 10 μM MnCl2, 10 μM ZnSO4, 1 μM CuSO4) supplemented with heat-killed OP50 and 50 μg/ml carbenicillin. […] Toxicity was evaluated from the number of dead or aberrantly small-sized animals.
48 h after switching the L4s from 20° C. to 25° C. […] After immobilization with 2 mM levamisole aggregation was scored using a fluorescent stereo microscope (Leica M165 FC, Plan Apo 2.0× objective). […]

Entries after “also recorded” stand apart in the source; their conditions may differ.

For the compound `OCCCCCCO` [1,6-hexanediol], in data set [1], the “concentrations required for in vitro or cellular activity” value is 1-10% and the “toxicity at active concentrations” value was “rapidly toxic”.
`O=C(O)CCCC[C@@H]1CCSS1` [R-(+)-lipoic acid]: in data set [2], the “EC50 reducing stress granule number, compared among compounds” value is listed as “comparable EC50”. Moreover, in data set [3], the stress granule formation entry is “reduced stress granule formation”. The “localisation of EWSR1, TIAL1, PABPC1, G3BP1 GFP to stress granules” value in data set [4] was “localised to stress granules in the absence of treatment, and not in the presence”. Further, the “proportion of animals with aggregation of PAB-1” value in the data set with PAB-1 is “dose-dependent decrease; also recorded: strong dose-dependent reduction”.
On to S-(−)-lipoic acid, for which the “EC50 reducing stress granule number, compared among compounds” value in data set [2] is “comparable EC50; also recorded: very similar activity”. Besides, the stress granule formation result in data set [3] is reported as “reduced stress granule formation”. The “localisation of EWSR1, TIAL1, PABPC1, G3BP1 GFP to stress granules” value in data set [4] was “localised to stress granules in the absence of treatment, and not in the presence”. Moreover, the “proportion of animals with aggregation of PAB-1” value with PAB-1 is “dose-dependent decrease; also recorded: strong dose-dependent reduction”.
